Tests used:
[1] = in water and ethanol/water mixtures; cited from earlier work
[2] = Non-aggregation of diclofenac free acid in dispersion (Malvern laser particle size analyzer); type: physicochemical
Protocol: For example, the edible film of Example 2 completely disintegrates within 15 seconds. • (b) Plasma levels of diclofenac: The plasma levels of diclofenac are measured in vivo, e.g. in pigs, at different time intervals after oral administration of the edible films. Edible films according to the invention may produce similar plasma levels of diclofenac as a commercially available tablet comprising 12.5 mg diclofenac potassium (Voltaren® Dolo) [AUC (=Area Under the Curve) is essentially the same]. Tmax may be even shorter in edible films than in Voltaren® Dolo—what is desirable in many cases. • (c) Consumer testing of the organoleptic properties of the edible films: The perception of the edible films immediately after administration is tested. An immediate softening and pleasant feeling in the mouth are realized. • (d) Taste evaluation of the edible films: The taste of the edible films is evaluated in vitro with the aid of an “electronic tongue” equipment and also in consumer tests. […] For example, the particle size of—non-micronized or micronized—diclofenac free acid is measured with the aid of a Malvern (UK) laser particle size analyzer equipment before and after processing, under different conditions of manufacture, to an edible film.

particle size distribution profile, starting material versus released from edible films ([2]; before and after processing to an edible film (with ethanol, without ethanol, without ethanol with homogenization), disintegrated in water): essentially is no difference
aggregation in dispersion ([2]; non-micronized (mean particle size 16 micrometers) or micronized, solvents e.g. water, water/ethanol or ethanol): no such aggregation does occur
SMILES: O=C(O)Cc1ccccc1Nc1c(Cl)cccc1Cl [diclofenac free acid]
solubility [1]: only poorly soluble
